In PubChem BioAssay (NCI):
Where “and” joins values, the source holds several entries; their conditions need not be identical. Identical values can stand only once.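 Grown in 96-well plates, cells were treated for 48 hours with each compound at five concentrations. Insufficient inhibition: endpoint recorded as highest concentration tested. Here, GI50 denotes the concentration required for 50% inhibition of growth. TGI is the concentration that stops growth completely.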

What was measured:
Assay in all cases: inhibition of tumour cell growth, NCI panel, 48 h
DU-145 prostate = tested on: DU-145 prostate
HL-60(TB) leukemia = tested on: HL-60(TB) leukemia
HOP-92 NSCLC = tested on: HOP-92 NSCLC
IGROV1 ovarian = tested on: IGROV1 ovarian
MOLT-4 leukemia = tested on: MOLT-4 leukemia
NCI/ADR-RES ovarian = tested on: NCI/ADR-RES ovarian
OVCAR-5 ovarian = tested on: OVCAR-5 ovarian
RPMI-8226 leukemia = tested on: RPMI-8226 leukemia
SF-295 CNS = tested on: SF-295 CNS
SNB-75 CNS = tested on: SNB-75 CNS

Structure (SMILES)	TGI (DU-145 prostate)	TGI (HL-60(TB) leukemia)	TGI (HOP-92 NSCLC)	TGI (IGROV1 ovarian)	TGI (MOLT-4 leukemia)	TGI (NCI/ADR-RES ovarian)	TGI (OVCAR-5 ovarian)	TGI (RPMI-8226 leukemia)	TGI (SF-295 CNS)	TGI (SNB-75 CNS)	GI50 (HOP-92 NSCLC)	GI50 (OVCAR-5 ovarian)	GI50 (RPMI-8226 leukemia)	GI50 (SNB-75 CNS)
N#CCN1CCCN(CC#N)CCN(CC#N)CCCN(CC#N)CC1	> 100 µM	> 100 µM	> 100 µM	> 100 µM	> 100 µM	> 100 µM	> 100 µM	> 100 µM	> 100 µM	> 100 µM				
O=C1C=CC(=O)[C@H]2C3C=CC(C4C3C3(Cl)C(Cl)=C(Cl)[C@]4(Cl)C3(Cl)Cl)[C@@H]12 (some centres undefined)	21.3 µM	4.63 µM	7.69 µM	18.4 µM	36 µM	17.4 µM	19.7 µM	23 µM	25.2 µM	25 µM				
O=C1C(=O)N(C23CC4CC(CC(C4)C2)C3)C(=S)N1c1ccccc1	> 100 µM	> 100 µM	> 100 µM	> 100 µM	> 100 µM	> 100 µM	> 100 µM	> 100 µM	> 100 µM	> 100 µM				
NC(CS)C(=O)NCCNc1ccc(NCCNC(=O)C(N)CS)c2c1C(=O)c1c(O)ccc(O)c1C2=O (centres undefined)	0.123 µM	0.0414 µM	0.195 µM and 1.03 µM	1.47 µM	0.62 µM	1.03 µM	1.58 µM and 0.718 µM	0.744 µM and 0.0804 µM	0.276 µM and 0.0386 µM	0.2 µM and 0.206 µM	0.0416 µM	0.0756 µM	0.0152 µM	0.0146 µM
O=[N+]([O-])c1ccc2c(N=Nc3ccc4ccccc4c3O)c(O)cc(S(=O)(=O)O)c2c1	> 88.4 µM	23.1 µM	> 100 µM	> 61.9 µM	> 51 µM	> 90.3 µM	> 100 µM	61.5 µM	> 85.7 µM	> 93.6 µM				
O=C(CBr)NCCc1c[nH]c2ccccc12	4.19 µM	3.69 µM	4.88 µM	4.22 µM	1.92 µM	6.96 µM	3.47 µM	4.31 µM	28.6 µM	3.12 µM				
CCOC(=O)C1=C(C)N(c2ccc(Cl)cc2)C2(O)C=CC(Nc3ccc(Cl)cc3)=C3C(=O)N(c4ccccc4)C(=O)C312 (centres undefined)	17.8 µM	23.4 µM	9.19 µM	21.9 µM	> 100 µM	12.7 µM	21.3 µM	4.13 µM	13.8 µM	20.3 µM				
NCCN(CCN)/[N+]([O-])=N/O	> 100 µM	> 100 µM	> 100 µM	> 100 µM	> 100 µM	> 100 µM	> 100 µM	> 100 µM	> 100 µM	> 100 µM				
CCOC(=O)CCC(C(=O)OCC)n1nnc2ccc(Nc3c(C)[n+]([O-])c4cc(F)c(OCC)cc4[n+]3[O-])cc21 (centres undefined)	> 100 µM	> 100 µM	> 100 µM	> 100 µM	> 100 µM	> 100 µM	> 100 µM	54.3 µM	> 100 µM	> 100 µM				
Clc1ccc(Nc2nnc(CNc3ccc(-c4nnc(Nc5ccc(Cl)cc5)o4)cc3)o2)cc1	26.2 µM	> 100 µM	48.7 µM	30.4 µM	49.3 µM	> 77.9 µM	40.7 µM	> 100 µM	38.4 µM	45.1 µM				
